Measured values as given in US11033535B2, “Oxadiazoles and thiadiazoles as TGF-β inhibitors” (Southern Research Institute, priority 2017, dated 2021).
Like-named read-outs stand apart in the source and are kept apart here.

Experiment: Pharmacokinetic evaluation following a single oral and intravenous administration
Type: in vivo, CD1 mouse
Conditions: CD1, mouse, plasma; for C0 / AUC(0-inf) / AUC(0-t) / MRT inf / half-life / Vd: Table 10, IV Dose: 1 mg/kg
Procedure: A NMP stock solution was prepared by adding 1.136 mL of NMP to 5.68 mg of compound no. 42140 with vortexing and sonification, to obtain a solution with a concentration at 5 mg/mL of 42140:01. Next, to prepare an intravenous formulation, 0.100 mL of the 5 mg/mL stock solution was placed in a new vial. 0.100 mL of NMP and 0.400 mL of PEG400 were added with vortexing and sonification, followed by addition of 0.400 mL of saline with vortexing and sonification. […] 42140:01. Alternatively, to prepare an oral formulation, 0.200 mL of the 5 mg/mL stock solution was placed in a new vial. 0.400 mL of PEG400 was added with vortexing and sonification, followed by addition of 0.400 mL of saline with vortexing and sonifiction. […] 42140:01.
(§1) Briefly, the desired serial concentrations of working solutions were achieved by diluting a stock solution of the compound with 100% acetonitrile. 3 μL of working solutions (5, 10, 20, 50, 100, 500, 1000, 5000, 10000 ng/mL) were added to 30 μL of the blank CD1 mouse plasma to achieve calibration standards of 0.5-1000 ng/mL (0.5, 1, 2, 5, 10, 50, 100, 500, 1000 ng/mL) in a total volume of 33 μL. Five quality control samples at 1 ng/mL, 2 ng/mL, 5 ng/mL, 50 ng/mL and 800 ng/mL for plasma were prepared independently of those used for the calibration curves. These QC samples were prepared on the day of analysis in the same way as calibration standards.
Next, 33 μL standards, 33 μL QC samples, and 33 μL unknown samples (30 μL plasma with 3 μL blank solution) were added to 200 μL of acetonitrile containing IS mixture for precipitating protein, respectively. Then the samples were vortexed for 30 s. After centrifugation at 4 degree Celsius, 4000 rpm for 15 min, 3 μL of supernatant was injected into the LC/MS/MS system for quantitative analysis.
HPLC analysis was performed using 100% water with 0.1% formic acid (Solution A) and 100% acetonitrile with 0.1% formic acid (Solution B) with a flow rate of 0.6 mL/min.
A NMP stock solution was prepared by adding 2.092 mL of NMP to 10.46 mg of […] with vortexing and sonification, to obtain a solution with a concentration at 5 mg/mL of […]. Next, to prepare an intravenous formulation, 0.100 mL of the 5 mg/mL stock solution was placed in a new vial. 0.100 mL of NMP and 0.400 mL of PEG400 were added with vortexing and sonification, followed by addition of 0.400 mL of saline with vortexing and sonification. […] 42320:01. Alternatively, to prepare an oral formulation, 0.200 mL of the 5 mg/mL stock solution was placed in a new vial. 0.400 mL of PEG400 was added with vortexing and sonification, followed by addition of 0.400 mL of saline with vortexing and sonifiction. […] 42320:01.
as §1, with “50 ng/mL,” for “50 ng/mL”

[1] = iv, 1 mg/kg, Table 9, IV Dose: 1 mg/kg, Mouse 1, read-out: Concentration
[2] = iv, 1 mg/kg, Table 9, IV Dose: 1 mg/kg, Mouse 2, read-out: Concentration
[3] = iv, 1 mg/kg, Table 9, IV Dose: 1 mg/kg, Mouse 3, read-out: Concentration
[4] = iv, 1 mg/kg, Table 9, IV Dose: 1 mg/kg, mean, read-out: Concentration, Mean
[5] = po, 5 mg/kg, Table 11, PO Dose: 5 mg/kg, Mouse 4, read-out: Concentration
[6] = po, 5 mg/kg, Table 11, PO Dose: 5 mg/kg, Mouse 5, read-out: Concentration
[7] = po, 5 mg/kg, Table 11, PO Dose: 5 mg/kg, Mouse 6, read-out: Concentration
[8] = po, 5 mg/kg, Table 11, PO Dose: 5 mg/kg, mean, read-out: Concentration, Mean

CC(=O)N[C@@H](Cc1ccc(CN(C)C)cc1)c1nnc(-c2cccc(OC(F)(F)F)c2)s1 [Compound 42320, N-(2-(4-((dimethylamino)methyl)phenyl)-1-(5-(3-(trifluoromethoxy)phenyl)-1,3,4-thiadiazol-2-yl)ethyl)acetamide]
concentration at 5 min [1]: 86.9 ng/mL
concentration at 5 min [2]: 90.3 ng/mL
concentration at 5 min [3]: 85.7 ng/mL
concentration at 5 min [4]: 87.6 ng/mL
concentration at 0.25 h [1]: 68.4 ng/mL
concentration at 0.25 h [2]: 65 ng/mL
concentration at 0.25 h [3]: 68.3 ng/mL
concentration at 0.25 h [4]: 67.2 ng/mL
concentration at 0.5 h [1]: 68 ng/mL
concentration at 0.5 h [2]: 59.2 ng/mL
concentration at 0.5 h [3]: 52.7 ng/mL
concentration at 0.5 h [4]: 60 ng/mL
concentration at 1 h [1]: 41.2 ng/mL
concentration at 1 h [2]: 39.4 ng/mL
concentration at 1 h [3]: 47.1 ng/mL
concentration at 1 h [4]: 42.6 ng/mL
concentration at 2 h [1]: 26.5 ng/mL
concentration at 2 h [2]: 23.9 ng/mL
concentration at 2 h [3]: 25.9 ng/mL
concentration at 2 h [4]: 25.4 ng/mL
concentration at 4 h [1]: 11.9 ng/mL
concentration at 4 h [2]: 9.71 ng/mL
concentration at 4 h [3]: 13 ng/mL
concentration at 4 h [4]: 11.5 ng/mL
concentration at 8 h [1]: 4.08 ng/mL
concentration at 8 h [2]: 3.66 ng/mL
concentration at 8 h [3]: 5.31 ng/mL
concentration at 8 h [4]: 4.35 ng/mL
C0 (iv, 1 mg/kg, Mouse 1): 97.9 ng/mL
AUC(0-inf) (iv, 1 mg/kg, Mouse 1, read-out: AUCInf): 183 ng·h/mL
AUC(0-t) (iv, 1 mg/kg, Mouse 1, read-out: AUClast): 169 ng·h/mL
MRT inf (iv, 1 mg/kg, Mouse 1, read-out: MRTInf—obs): 2.66 h
half-life (iv, 1 mg/kg, Mouse 1, read-out: T1/2 (converted)): 2.27 h
Vd (iv, 1 mg/kg, Mouse 1, read-out: Vss—obs): 14.6 L/kg
C0 (iv, 1 mg/kg, Mouse 2): 106 ng/mL
AUC(0-inf) (iv, 1 mg/kg, Mouse 2, read-out: AUCInf): 165 ng·h/mL
AUC(0-t) (iv, 1 mg/kg, Mouse 2, read-out: AUClast): 153 ng·h/mL
MRT inf (iv, 1 mg/kg, Mouse 2, read-out: MRTInf—obs): 2.59 h
half-life (iv, 1 mg/kg, Mouse 2, read-out: T1/2 (converted)): 2.29 h
Vd (iv, 1 mg/kg, Mouse 2, read-out: Vss—obs): 15.7 L/kg
C0 (iv, 1 mg/kg, Mouse 3): 96 ng/mL
AUC(0-inf) (iv, 1 mg/kg, Mouse 3, read-out: AUCInf): 193 ng·h/mL
AUC(0-t) (iv, 1 mg/kg, Mouse 3, read-out: AUClast): 172 ng·h/mL
MRT inf (iv, 1 mg/kg, Mouse 3, read-out: MRTInf—obs): 3.17 h
half-life (iv, 1 mg/kg, Mouse 3, read-out: T1/2 (converted)): 2.68 h
Vd (iv, 1 mg/kg, Mouse 3, read-out: Vss—obs): 16.4 L/kg
AUC(0-inf) (iv, 1 mg/kg, mean, read-out: AUCInf, Mean): 180 ng·h/mL
AUC(0-t) (iv, 1 mg/kg, mean, read-out: AUClast, Mean): 165 ng·h/mL
MRT inf (iv, 1 mg/kg, mean, read-out: MRTInf—obs, Mean): 2.81 h
half-life (iv, 1 mg/kg, mean, read-out: T1/2, Mean (converted)): 2.41 h
Vd (iv, 1 mg/kg, mean, read-out: Vss—obs, Mean): 15.6 L/kg
concentration at 0.25 h [5]: 100 ng/mL
concentration at 0.25 h [6]: 71.4 ng/mL
concentration at 0.25 h [7]: 78.6 ng/mL
concentration at 0.25 h [8]: 83 ng/mL
concentration at 0.5 h [5]: 201 ng/mL
concentration at 0.5 h [6]: 121 ng/mL
concentration at 0.5 h [7]: 122 ng/mL
concentration at 0.5 h [8]: 148 ng/mL
concentration at 1 h [5]: 193 ng/mL
concentration at 1 h [6]: 119 ng/mL
concentration at 1 h [7]: 112 ng/mL
concentration at 1 h [8]: 141 ng/mL
